The source of these data is patent US9757363B2, “SNS-595 and methods of using the same” (Sunesis Pharmaceuticals, Inc., priority 2004, dated 2017).

The data set can be described thus: Pharmacokinetics of SNS-595 in cancer patients. Format: in vivo, human. As to conditions: for AUC(0-t) / AUC(0-inf) / MRT inf / Cmax: human, intravenous. As to the method:
SNS-595 was administered to enrolled patients for up to six cycles. A cycle is defined as a three-week period, with SNS-595 administered on the first day of each cycle (day 0), followed by at least 21 days of observation. SNS-595 was administered to cohorts of at least 3 patients and dose escalation occurred by sequential cohort.

The mark [1] stands for this setting: 48 mg/m2, plasma, dose 48 mg/m^2.
The mark [2] stands for this setting: 60 mg/m2, plasma, dose 60 mg/m^2.

By AUC(0-t) is commonly meant exposure summed from dosing to a finite time, without extrapolation to infinity. Low readings indicate less exposure, high ones more exposure. For orientation: Cmax means the maximum level reached in the sampled fluid or tissue.

Like-named read-outs stand apart in the source and are kept apart here.

In the case of `CN[C@H]1CN(c2ccc3c(=O)c(C(=O)O)cn(-c4nccs4)c3n2)C[C@@H]1OC` [SNS-595, (+)-1,4-dihydro-7-[(3S,4S)-3-methoxy-4-(methylamino)-1-pyrrolidinyl]-4-oxo-1-(2-thiazoyl)-1,8-naphthyridine-3-carboxylic acid], the “relation of dose to AUC^oo” value (dose escalation by sequential cohort) is “linear”. Further, the AUC(0-t) (3 mg/m2, plasma, dose 3 mg/m^2) was 750 ng·h/mL; the AUC(0-t) (6 mg/m2, plasma, dose 6 mg/m^2) turned out to be 2400 ng·h/mL; the AUC(0-t) (12 mg/m2, plasma, dose 12 mg/m^2) amounted to 5400 ng·h/mL; the area under the curve AUC(0-t) (24 mg/m2, plasma, dose 24 mg/m^2) came out at 11100 ng·h/mL; the AUC(0-t) under setting [1] worked out at 21100 ng·h/mL; the AUC(0-t) under setting [2] was found to be 28100 ng·h/mL. Also, the AUC(0-inf) was determined as 2990 ng·h/mL (6 mg/m2, plasma, dose 6 mg/m^2, read-out: AUCINF_obs); 27300 ng·h/mL (48 mg/m2, plasma, dose 48 mg/m^2, read-out: AUCINF_obs); 33600 ng·h/mL (60 mg/m2, plasma, dose 60 mg/m^2, read-out: AUCINF_obs). Also, the MRT inf is 29.1 h (6 mg/m2, plasma, dose 6 mg/m^2, read-out: MRTINF_obs); 23.7 h (12 mg/m2, plasma, dose 12 mg/m^2, read-out: MRTINF_obs); 21.6 h (24 mg/m2, plasma, dose 24 mg/m^2, read-out: MRTINF_obs); 28.9 h (48 mg/m2, plasma, dose 48 mg/m^2, read-out: MRTINF_obs); 23.7 h (60 mg/m2, plasma, dose 60 mg/m^2, read-out: MRTINF_obs). The highest concentration (Cmax) by setting is: under setting [1], 2870 ng/mL; under setting [2], 4540 ng/mL. The CO (plasma, dose 3 mg/m^2) is 152.25 ng/mL; the CO (plasma, dose 6 mg/m^2) worked out at 379.69 ng/mL; the CO (plasma, dose 12 mg/m^2) is listed as 2888.66 ng/mL; the CO (plasma, dose 24 mg/m^2) came to 2924.46 ng/mL; the CO (plasma, dose 48 mg/m^2) is 1984.52 ng/mL; the CO (plasma, dose 60 mg/m^2) was found to be 4797.47 ng/mL. Moreover, the Vss_obs (plasma, dose 48 mg/m^2) amounted to 1.46 L/kg.
